Key:
RSV A2 = assay: RSV plaque reduction assay; assay type: cell-based, respiratory syncytial virus (RSV); settings: human respiratory syncytial virus, HepG2; Hep-G2 cells, RSV A2, mean of at least two experiments
Protocol: Compounds were subjected to RSV plaque reduction assays according to the following protocol.
Hep-G2 cells (ECACC, 85011430) were passaged in flasks and seeded in 24-well plates in DMEM containing antibiotics and supplemented with 10% FBS. During inoculation and subsequent incubation, cells were cultured in DMEM containing 2% FBS. 100 plaque forming unit/well of RSV (RSV A2 ECACC, 0709161v) was mixed with eight serial dilutions of compound. Subsequently, 100 μL of the virus/compound mixtures was added to confluent Hep-G2 cell monolayers. The cells and virus/compound mixtures were incubated at 37° C. in a humidified 5% CO2 incubator for 2 h prior to removal of the inoculum and addition of 1 mL of overlay (DMEM containing 2% FBS and 0.8% CMC) containing compound dilutions. The cells and were incubated at 37° C. in a humidified 5% CO2 incubator for 2 days.
Cells were washed with PBS before adding 75/25% v/v EtOH/MeOH, for 3 min. Fixative was removed and plates were washed with PBS. A pre-titrated amount of the primary antibody was added in 200 μL PBS/2% milk powder, and plates incubated for 90 min at 37° C. The plates were washed 3 times with PBS/0.05% Tween20 before addition of rabbit anti-goat horse radish peroxidase in 200 μL PBS/2% milk powder, and incubated for 1 h at 37° C. Following three wash steps with PBS/0.05% Tween20, 200 μL ready-to-use TrueBlue was added and plates were incubated at rt for 10-15 min before washing with water. After removal of water, plates were air-dried in the dark.
Plates were scanned and analysed using the Immunospot S6 Macro analyser, which is equipped with BioSpot analysis software for counting immunostained plaques (virospots). Plaque counts were used to calculate % infection relative to the mean of the plaque count in the virus control wells for RSV. The EC50 value was calculated as 50% reduction in signal, respectively, by interpolation of inhibition curves fitted with a 4-parameter nonlinear regression with a variable slope in Dotmatics. Plaque EC50 and cell toxicity CC50 values are a mean of at least two experiments and figures are rounded to whole units.

[1] = Liver microsomal stability, human; assay type: in vitro ADME; settings: pH 7.4; human liver microsomes, 0.5 mg/mL protein, 1 μM compound, NADPH; >80% remaining at 45 min denoted >140; read-out: Liver Microsomal Stability: t1/2 (min); human
Protocol: (§1) Compounds were subjected to the following assays to investigate liver microsomal stability, permeability and plasma protein binding.
(§2) Pooled liver microsomes were purchased from a reputable commercial supplier and stored at −80° C. prior to use. Microsomes (final protein concentration 0.5 mg/mL), 0.1 M phosphate buffer pH 7.4 and test compound (final substrate concentration 1 μM; final DMSO concentration 0.25%) were pre-incubated at 37° C. prior to the addition of NADPH (final concentration 1 mM) to initiate the reaction. The final incubation volume was 50 μL. A control incubation was included for each compound tested where 0.1 M phosphate buffer pH 7.4 was added instead of NADPH (minus NADPH). Two control compounds were included with each species. All incubations were performed singularly for each test compound. Each compound was incubated for 0, 5, 15, 30 and 45 min. The control (minus NADPH) was incubated for 45 min only. The reactions were stopped by transferring incubate into acetonitrile at the appropriate time points, in a 1:3 ratio. The termination plates are centrifuged at 3,000 rpm for 20 min at 4° C. to precipitate the protein. Following protein precipitation, the sample supernatants were combined in cassettes of up to 4 compounds, internal standard added, and samples analysed by LC-MS/MS. From a plot of ln peak area ratio (compound peak area/internal standard peak area) against time, the gradient of the line was determined. Subsequently, half-life (t1/2) and intrinsic clearance (CLint) were calculated.

Cell cytotoxicity CC50 = assay type: cell-based; settings: human; mean of at least two experiments
[2] = Liver microsomal stability, rat; assay type: in vitro ADME; settings: pH 7.4; rat liver microsomes, 0.5 mg/mL protein, 1 μM compound, NADPH; >80% remaining at 45 min denoted >140; read-out: Liver Microsomal Stability: t1/2 (min); rat
Protocol: as §1, §2

[3] = Liver microsomal stability, dog; assay type: in vitro ADME; settings: pH 7.4; dog liver microsomes, 0.5 mg/mL protein, 1 μM compound, NADPH; >80% remaining at 45 min denoted >140; read-out: Liver Microsomal Stability: t1/2 (min); dog
Protocol: as §1, §2

Row | Structure (SMILES) | EC50 (RSV A2) [nM] | half-life [1] [min] | CC50 (Cell cytotoxicity CC50) [nM] | half-life [2] [min] | half-life [3] [min]
1 | CCNc1ccc(-c2c(C(=O)N[C@H]3N=C(c4ccccc4)c4cccc(F)c4NC3=O)cnn2C2COC2)c(F)n1 [Example 40, 5-[6-(Ethylamino)-2-fluoropyridin-3-yl]-N-[(3S)-9-fluoro-2-oxo-5-phenyl-1,3-dihydro-1,4-benzodiazepin-3-yl]-1-(oxetan-3-yl)pyrazole-4-carboxamide] | 67 | 49.6 | > 25000 | 81.1 | 72.9
2 | O=C(N[C@H]1N=C(c2ccccc2)c2ccccc2NC1=O)c1cnn(C2CCOCC2)c1-c1ccc(C2CC2)cc1F [Example 43, 5-(4-Cyclopropyl-2-fluorophenyl)-1-(oxan-4-yl)-N-[(3S)-2-oxo-5-phenyl-1,3-dihydro-1,4-benzodiazepin-3-yl]pyrazole-4-carboxamide] | 48 | 170 | > 25000 | 44.9 | 161
3 | O=C(N[C@H]1N=C(c2ccccc2)c2cccc(F)c2NC1=O)c1cnn(C2CCOCC2)c1-c1ccc(C2CC2)cc1F [Example 44, 5-(4-Cyclopropyl-2-fluorophenyl)-N-[(3S)-9-fluoro-2-oxo-5-phenyl-1,3-dihydro-1,4-benzodiazepin-3-yl]-1-(oxan-4-yl)pyrazole-4-carboxamide] | 48 | 201 | > 25000 | 55.9 | 90
4 | CCc1ccc(-c2c(C(=O)N[C@H]3N=C(c4ccccc4)c4cccc(F)c4NC3=O)cnn2C2CCOCC2)c(F)c1 [Example 47, 5-(4-Ethyl-2-fluorophenyl)-1-(oxan-4-yl)-N-[(3S)-9-fluoro-2-oxo-5-phenyl-1,3-dihydro-1,4-benzodiazepin-3-yl]pyrazole-4-carboxamide] | 30 | 105 | > 25000 | 33.1 | 81.4
5 | CCn1ncc(C(=O)N[C@H]2N=C(c3ccccc3)c3cccc(F)c3NC2=O)c1-c1cc(C2CC2)cnc1F [Example 48, 5-(5-Cyclopropyl-2-fluoropyridin-3-yl)-1-ethyl-N-[(3S)-9-fluoro-2-oxo-5-phenyl-1,3-dihydro-1,4-benzodiazepin-3-yl]pyrazole-4-carboxamide] | 92 | 355 | > 25000 | 118 | > 140
6 | O=C(N[C@H]1N=C(c2ccccc2)c2cccc(F)c2NC1=O)c1cnn(C2CCOCC2)c1-c1ccc(C2CC2)nc1F [Example 49, 5-(6-Cyclopropyl-2-fluoropyridin-3-yl)-N-[(3S)-9-fluoro-2-oxo-5-phenyl-1,3-dihydro-1,4-benzodiazepin-3-yl]-1-(oxan-4-yl)pyrazole-4-carboxamide] | 100 | 181 | > 25000 | 73.4 | 110
7 | O=C(N[C@H]1N=C(c2ccccc2)c2ccccc2NC1=O)c1cnn(C2CCOCC2)c1-c1cc(C2CC2)cnc1F [Example 50, 5-(5-Cyclopropyl-2-fluoropyridin-3-yl)-1-(oxan-4-yl)-N-[(3S)-2-oxo-5-phenyl-1,3-dihydro-1,4-benzodiazepin-3-yl]pyrazole-4-carboxamide] | 81 | 94.3 | > 25000 | 44.2 | 163
8 | O=C(N[C@H]1N=C(c2ccccc2)c2cccc(F)c2NC1=O)c1cnn(C2CCOCC2)c1-c1cc(C2CC2)cnc1F [Example 51, 5-(5-Cyclopropyl-2-fluoropyridin-3-yl)-N-[(3S)-9-fluoro-2-oxo-5-phenyl-1,3-dihydro-1,4-benzodiazepin-3-yl]-1-(oxan-4-yl)pyrazole-4-carboxamide] | 53 | 171 | > 7790 | 92.8 | 212

Reference: patent US20220409629A1, “BENZODIAZEPINE DERIVATIVES FOR TREATING A RESPIRATORY SYNCYTIAL VIRUS (RSV) INFECTION” (priority 2019, published 2022)
